“Also recorded” adds a separate entry of the source.
Experiments:
Format in all cases: in vivo
OVA-sensitized mice [1] = test: Bronchial relaxation to salbutamol, isolated bronchi of OVA-sensitized mice (Experimental Groups I); conditions: 1 mg/Kg i.p.; rings precontracted with carbachol; vs OVA group; FIG. 10B
OVA-sensitized mice [2] = conditions: mouse, in vivo
IgE = test: Plasma IgE levels in OVA-sensitized mice, ELISA (Experimental Groups I); conditions: 1 mg/Kg i.p.; vs OVA group; FIG. 10 panel C
Method: Female Balb/c (8-week-old, Charles River, Calco, Italy) were housed in the animal care facility of the Department of Pharmacy of the University of Naples, Italy in a controlled environment (temperature 21±2° C. and humidity 60±10%) and provided with standard rodent chow and water. All animals were allowed to acclimate for four days prior to experiments and were subjected to 12 h light−12 h dark schedule. Experiments were conducted during the light phase. The experimental procedures were approved by the Italian Ministry according to International and National law and policies (EU Directive 2010/63/EU and Italian DL 26/2014 for animal experiments). […] The compounds were dissolved in DMSO (Sigma Chemical Co., St. Louis, MO) at concentrations at which the determined dose per animal results from the intraperitoneal administration of 100 μl of solution (1:10 DMSO) and intra-nasal (i.n.) administration of 10 μl/animal (5 μl/nostril) of the solutions. […] Plasma levels of IgE were measured as index of sensitization. […] Total IgE levels were measured by means of ELISA using matched antibody pairs (BD Biosciences Pharmingen San Jose, CA).

[3] = tested on: mice with OVA-induced allergic asthma; test: Lung hyperreactivity/Penh function, whole body plethysmography, intra-nasal FB, F, B (Experimental Groups II); conditions: i.n. daily 2 weeks, all tested doses: FB 0.3, 1.0, 3.0 nmol/animal, vs untreated OVA group
[4] = tested on: mice with OVA-induced allergic asthma; test: BAL fluid cell counts (Experimental Groups II); conditions: for total leukocytes in BAL fluid: vs untreated OVA group
Method: (§1) Male Balb/c SPF mice (25*2 g, 6-week-old) were purchased from the animal house facilities at the São Paulo School of Medicine (Federal University of São Paulo, Brazil). They were group-housed in a temperature-controlled room at 22° C. with a 12/12-hour light/dark cycle and allowed free access to food and water. The study is in agreement with the Ethical Principles for Animal Research established by the Brazilian College for Animal Experimentation (COBEA). According to the internal laboratory rules, euthanasia is performed if severe distress related to the test agents developed during the experiment. […] The compounds were dissolved in DMSO (Sigma Chemical Co., St. Louis, MO) at concentrations at which the determined dose per animal results from the intraperitoneal administration of 100 μl of solution (1:10 DMSO) and intra-nasal (i.n.) administration of 10 μl/animal (5 μl/nostril) of the solutions. Mice were sensitized with two subcutaneous injections of 0.4 ml of OVA/Al(OH)3, with an interval of 7 days (Sham animals received the Al(OH)3 suspension in PBS with no OVA). Seven days after the second sensitization (i.e., 3rd week), the animals were nebulized twice a week with the 1% OVA solution (Sham and untreated OVA groups were nebulized with PBS) during 20 minutes for the next 2 weeks. Sixty minutes before the challenges (OVA nebulization) and daily during the next 4 weeks, mice were intra-nasally treated (10 μl/animal as 5 μl/nostril) with the respective compounds/vehicle. After Penh evaluation, the mice were anesthetized with inhaled isofluorane (5% v/v in O2) and blood samples were collected from the descending abdominal aorta. The mice were then euthanized by exsanguination (blood samples were collected from each animal for leukocyte cell counting), and bronchoalveolar lavage (BAL) was performed by exposing and cannulating the trachea with a polyethylene tube (1 mm outer diameter) connected to a syringe. The lungs were washed by flushing 300 μL of heparin-containing PBS solution (20 Ul/mL). The retrieved BAL lavage aliquots were obtained, and the same procedure was repeated four additional times. The samples were submitted to centrifugation (1000 g for 10 min) and the cell pellet was resuspended in 200 μL of PBS solution. Total cell counts were determined using a Neubauer chamber, and differential counting was carried out in cytospin (Fanem Mod 2400; São Paulo, Brazil) preparations stained with May-Grünwald dye. Leukocytes were classified based on normal morphological criteria.

[5] = tested on: mice with OVA-induced allergic asthma; test: Circulating leukocyte cell counts (Experimental Groups II)
Method: as §1

[6] = i.n., all treatments: FB 0.3, 1.0, 3.0 nmol/animal, F and B 3.0 nmol/animal

## COc1ccc(CC(C)NCC(O)c2ccc(O)c(NC=O)c2)cc1 (stereo not shown) [F, N-[2-hydroxy-5-[1-hydroxy-2-[[2-(p-methoxyphenyl)-2-propy]-amino]-ethyl]-phenyl]-formamide, reference compound]
OVA-sensitized mice [1]
  bronchial relaxation to salbutamol: did not ameliorate the lack of bronchial response to salbutamol

## Budesonide 21-phosphate formoterol salt [FB]
OVA-sensitized mice [2]
  bronchial hyperreactivity (increased response of isolated bronchi to carbachol): Significant reduction of the bronchial hyperreactivity
OVA-sensitized mice [1]
  bronchial relaxation to salbutamol: significantly increased bronchial relaxation
IgE
  OVA induced increase of IgE plasma levels: significantly reduced OVA induced increase of IgE plasma levels
[3]; B 3.0 nmol/animal
  area under the Penh-metacholine concentration curve (AUC): significantly reduced Penh at all the MCh doses tested; also recorded: abolished
[3]; F and B 3.0 nmol/animal
  Penh maximal response Emax to inhaled metacholine: Significant reduction of the maximal response Emax; also recorded: abolished
[4]; 0.3 nmol/animal i.n.
  total leukocytes in BAL fluid: significantly reduced
[4]; 3 nmol/animal i.n.
  OVA-induced increase of BAL macrophages: abolished the OVA-induced increase of BAL macrophages
  total leukocytes in BAL fluid: significantly reduced
[4]; [6]
  eosinophils in BAL samples: significantly controlled
[5]; 0.3 nmol/animal i.n.
  circulating macrophages: potent lowering effect
[5]; 3 nmol/animal i.n., vs untreated OVA group
  total leukocytes in blood samples: significantly reduced; also recorded: almost abolished
[5]; 3 nmol/day i.n., vs untreated allergic animals
  circulating lymphocytes: lower number of circulating cells than the untreated allergic animals
[5]; highest dose (3 nmol/animal i.n.)
  circulating eosinophils vs control Sham animals: even lower than in the control Sham animals
[5]; i.n., FB all tested doses (0.3, 1.0, 3.0 nmol/animal), B and F 3 nmol/animal
  circulating macrophages: significantly reduced the number of macrophages; also recorded: reduced the number of these cells to values lower than those observed in the control animals
[5]; [6]
  circulating eosinophils: decreased by FB treatment at all the tested doses

Source: patent US12465614B2, “Budesonide 21-phosphate salts and pharmaceutical compositions containing the same” (GENETIC S.P.A., priority 2020, dated 2025)
